Results taken from US9029391B2 (priority 2011, dated 2015).
pIC50: −log10 of the molar value.

System: HIV
Test: MT4 Assay (anti-HIV activity)
Type: cell-based
Conditions: Human immunodeficiency virus 1, 96 h, read-out: HIV MT4 Assay IC50, HTLV-1 transformed cell line MT-4, cell titer glo, 10 point dose response curve
Procedure: Antiviral HIV activity and cytotoxicity values for compounds of the invention from Table 1 were measured in parallel in the HTLV-1 transformed cell line MT-4 based on the method previously described (Hazen et al., 2007, In vitro antiviral activity of the novel, tyrosyl-based human immunodeficiency virus (HIV) type 1 protease inhibitor brecanavir (GW640385) in combination with other antiretrovirals and against a panel of protease inhibitor-resistant HIV (Hazen et al., “In vitro antiviral activity of the novel, tyrosyl-based human immunodeficiency virus (HIV) type 1 protease inhibitor brecanavir (GW640385) in combination with other antiretrovirals and against a panel of protease inhibitor-resistant HIV”, Antimicrob. Agents Chemother. 2007, 51: 3147-3154; and Pauwels et al., “Sensitive and rapid assay on MT-4 cells for the detection of antiviral compounds against the AIDS virus”, J. of Virological Methods 1987, 16: 171-185).
Luciferase activity was measured 96 hours later by adding a cell titer glo (Promega, Madison, Wis.). Percent inhibition of cell protection data was plotted relative to no compound control. Under the same condition, cytotoxicity of the compounds was determined using cell titer glo (Promega, Madison, Wis.). IC50s were determined from a 10 point dose response curve using 3-4-fold serial dilution for each compound, which spans a concentration range >1000 fold.

| SMILES | pIC50 |
| --- | --- |
| Cc1c(-c2c([C@H](OC(C)(C)C)C(=O)O)n(C)c(=O)c3cc(-c4cnn(C)c4)ccc23)cc(F)c2c1CCCO2 (atropisomer, axis not shown; (M)) [Example 200, (2S)(M)-[(1,1-dimethylethyl)oxy][4-(8-fluoro-5-methyl-3,4-dihydro-2H-chromen-6-yl)-2-methyl-7-(1-methyl-1H-pyrazol-4-yl)-1-oxo-1,2-dihydro-3-isoquinolinyl]ethanoic acid] | 6.96 |
| Cc1c(-c2c([C@H](OC(C)(C)C)C(=O)O)n(C)c(=O)c3cc(-c4cnn(CCC(C)C)c4)ccc23)cc(F)c2c1CCCO2 (atropisomer, axis not shown; (M)) [Example 201, (2S)(M)-[(1,1-dimethylethyl)oxy]{4-(8-fluoro-5-methyl-3,4-dihydro-2H-chromen-6-yl)-2-methyl-7-[1-(3-methylbutyl)-1H-pyrazol-4-yl]-1-oxo-1,2-dihydro-3-isoquinolinyl}ethanoic acid] | 7.40 |
| Cc1c(-c2c([C@H](OC(C)(C)C)C(=O)O)n(C)c(=O)c3cc(-c4cccn4C)ccc23)cc(F)c2c1CCCO2 (atropisomer, axis not shown; (M)) [Example 202, (S)(M)-[(1,1-dimethylethyl)oxy][4-(8-fluoro-5-methyl-3,4-dihydro-2H-chromen-6-yl)-2-methyl-7-(1-methyl-1H-pyrrol-2-yl)-1-oxo-1,2-dihydro-3-isoquinolinyl]ethanoic acid] | 7.70 |
| Cc1occc1-c1ccc2c(-c3cc(F)c4c(c3C)CCCO4)c([C@H](OC(C)(C)C)C(=O)O)n(C)c(=O)c2c1 (atropisomer, axis not shown; (M)) [Example 203, (2S)(M)-[(1,1-dimethylethyl)oxy][4-(8-fluoro-5-methyl-3,4-dihydro-2H-chromen-6-yl)-2-methyl-7-(2-methyl-3-furanyl)-1-oxo-1,2-dihydro-3-isoquinolinyl]ethanoic acid] | 7.52 |
| Cc1c(-c2c([C@H](OC(C)(C)C)C(=O)O)n(C)c(=O)c3cc(-c4ccccc4)ccc23)cc(F)c2c1CCCO2 (atropisomer, axis not shown; (M)) [Example 204, (2S)(M)-[(1,1-dimethylethyl)oxy][4-(8-fluoro-5-methyl-3,4-dihydro-2H-chromen-6-yl)-2-methyl-1-oxo-7-phenyl-1,2-dihydro-3-isoquinolinyl]ethanoic acid] | 7.52 |
| Cc1c(-c2c([C@H](OC(C)(C)C)C(=O)O)n(C)c(=O)c3cc(-c4ccncc4)ccc23)cc(F)c2c1CCCO2 (atropisomer, axis not shown; (M)) [Example 205, (2S)(M)-[(1,1-dimethylethyl)oxy][4-(8-fluoro-5-methyl-3,4-dihydro-2H-chromen-6-yl)-2-methyl-1-oxo-7-(4-pyridinyl)-1,2-dihydro-3-isoquinolinyl]ethanoic acid] | 6.80 |
| Cc1c(-c2c([C@H](OC(C)(C)C)C(=O)O)n(C)c(=O)c3cc(-c4cccnc4)ccc23)cc(F)c2c1CCCO2 (atropisomer, axis not shown; (M)) [Example 206, (2S)(M)-[(1,1-dimethylethyl)oxy][4-(8-fluoro-5-methyl-3,4-dihydro-2H-chromen-6-yl)-2-methyl-1-oxo-7-(3-pyridinyl)-1,2-dihydro-3-isoquinolinyl]ethanoic acid] | 6.80 |
| Cc1noc(C)c1-c1ccc2c(-c3cc(F)c4c(c3C)CCCO4)c([C@H](OC(C)(C)C)C(=O)O)n(C)c(=O)c2c1 (atropisomer, axis not shown; (M)) [Example 207, (2S)(M)-[(1,1-dimethylethyl)oxy][7-(3,5-dimethyl-4-isoxazolyl)-4-(8-fluoro-5-methyl-3,4-dihydro-2H-chromen-6-yl)-2-methyl-1-oxo-1,2-dihydro-3-isoquinolinyl]ethanoic acid] | 7.10 |
| COc1cccc(-c2ccc3c(-c4cc(F)c5c(c4C)CCCO5)c([C@H](OC(C)(C)C)C(=O)O)n(C)c(=O)c3c2)n1 (atropisomer, axis not shown; (M)) [Example 208, (2S)(M)-[(1,1-dimethylethyl)oxy]{4-(8-fluoro-5-methyl-3,4-dihydro-2H-chromen-6-yl)-2-methyl-7-[6-(methyloxy)-2-pyridinyl]-1-oxo-1,2-dihydro-3-isoquinolinyl}ethanoic acid] | 7.40 |
| Cc1c(-c2c([C@H](OC(C)(C)C)C(=O)O)n(C)c(=O)c3cc(-c4ccc(F)cc4)ccc23)cc(F)c2c1CCCO2 (atropisomer, axis not shown; (M)) [Example 209, (S)(M)-2-(tert-butoxy)-2-(4-(8-fluoro-5-methylchroman-6-yl)-7-(4-fluorophenyl)-2-methyl-1-oxo-1,2-dihydroisoquinolin-3-yl)acetic acid] | 7.70 |
| Cc1c(-c2c([C@H](OC(C)(C)C)C(=O)O)n(C)c(=O)c3cc(-c4cccc(F)c4)ccc23)cc(F)c2c1CCCO2 (atropisomer, axis not shown; (M)) [Example 210, (S)(M)-2-(tert-butoxy)-2-(4-(8-fluoro-5-methylchroman-6-yl)-7-(3-fluorophenyl)-2-methyl-1-oxo-1,2-dihydroisoquinolin-3-yl)acetic acid] | 8.00 |
| Cc1c(-c2c([C@H](OC(C)(C)C)C(=O)O)n(C)c(=O)c3cc(-c4ccccc4F)ccc23)cc(F)c2c1CCCO2 (atropisomer, axis not shown; (M)) [Example 211, (S)(M)-2-(tert-butoxy)-2-(4-(8-fluoro-5-methylchroman-6-yl)-7-(2-fluorophenyl)-2-methyl-1-oxo-1,2-dihydroisoquinolin-3-yl)acetic acid] | 7.70 |
| Cc1c(-c2c([C@H](OC(C)(C)C)C(=O)NO)n(C)c(=O)c3ccccc23)cc(F)c2c1CCCO2 (atropisomer, axis not shown; (M)) [Example 213, (S)(M)-2-(tert-butoxy)-2-(4-(8-fluoro-5-methylchroman-6-yl)-2-methyl-1-oxo-1,2-dihydroisoquinolin-3-yl)-N-hydroxyacetamide] | 5.28 |
| Cc1c(-c2c([C@H](OC(C)(C)C)C(=O)N(C)O)n(C)c(=O)c3ccccc23)cc(F)c2c1CCCO2 (atropisomer, axis not shown; (M)) [Example 214, (S)(M)-2-(tert-butoxy)-2-(4-(8-fluoro-5-methylchroman-6-yl)-2-methyl-1-oxo-1,2-dihydroisoquinolin-3-yl)-N-hydroxy-N-methylacetamide] | 5.32 |
| Cc1c(-c2c([C@H](OC(C)(C)C)C(=O)NS(C)(=O)=O)n(C)c(=O)c3ccccc23)cc(F)c2c1CCCO2 (atropisomer, axis not shown; (M)) [Example 215, (2S)(M)-2-[(1,1-dimethylethyl)oxy]-2-[4-(8-fluoro-5-methyl-3,4-dihydro-2H-chromen-6-yl)-2-methyl-1-oxo-1,2-dihydro-3-isoquinolinyl]-N-(methylsulfonyl)ethanamide] | 4.95 |
| COc1c(C)cc(-c2c(C(OC(C)(C)C)C(=O)O)n(C)c(=O)c3ccccc23)cc1C (stereo not drawn) [Example 1, tert-Butoxy-[4-(4-methoxy-3,5-dimethyl-phenyl)-2-methyl-1-oxo-1,2-dihydro-isoquinolin-3-yl]-acetic acid] | 5.18 |
| Cc1ccc(-c2c([C@H](OC(C)(C)C)C(=O)O)n(C)c(=O)c3ccccc23)cc1C [Example 3, (S)-2-(tert-butoxy)-2-(4-(3,4-dimethylphenyl)-2-methyl-1-oxo-1,2-dihydroisoquinolin-3-yl)acetic acid] | 6.36 |
| Cc1c(-c2c(C(OC(C)(C)C)C(=O)O)n(C)c(=O)c3cc(OCCO)ccc23)ccc2c1CCCO2 (stereo not drawn) [Example 4, tert-Butoxy-[7-(2-hydroxy-ethoxy)-2-methyl-4-(5-methyl-chroman-6-yl)-1-oxo-1,2-dihydro-isoquinolin-3-yl]-acetic acid] | 5.43 |
| Cn1c(C(OC(C)(C)C)C(=O)O)c(-c2ccc(OC(F)(F)F)cc2)c2ccccc2c1=O (stereo not drawn) [Example 5, 2-(tert-butoxy)-2-{2-methyl-1-oxo-4-[4-(trifluoromethoxy)phenyl]-1,2-dihydroisoquinolin-3-yl}acetic acid] | 4.38 |
| Cn1c(C(OC(C)(C)C)C(=O)O)c(-c2cc(F)cc(F)c2)c2ccccc2c1=O (stereo not drawn) [Example 6, 2-(tert-butoxy)-2-[4-(3,5-difluorophenyl)-2-methyl-1-oxo-1,2-dihydroisoquinolin-3-yl]acetic acid] | 4.98 |
| Cc1ccc(-c2c(C(OC(C)(C)C)C(=O)O)n(C)c(=O)c3ccccc23)cc1 (stereo not drawn) [Example 7, 2-(tert-butoxy)-2-[2-methyl-4-(4-methylphenyl)-1-oxo-1,2-dihydroisoquinolin-3-yl]acetic acid] | 6.15 |
| COc1ccc(-c2c(C(OC(C)(C)C)C(=O)O)n(C)c(=O)c3ccccc23)cc1 (stereo not drawn) [Example 8, 2-(tert-butoxy)-2-[4-(4-methoxyphenyl)-2-methyl-1-oxo-1,2-dihydroisoquinolin-3-yl]acetic acid] | 5.89 |
| Cn1c(C(OC(C)(C)C)C(=O)O)c(-c2ccc(F)cc2)c2ccccc2c1=O (stereo not drawn) [Example 9, 2-(tert-butoxy)-2-[4-(4-fluorophenyl)-2-methyl-1-oxo-1,2-dihydroisoquinolin-3-yl]acetic acid] | 5.88 |
| Cc1cc(C)cc(-c2c(C(OC(C)(C)C)C(=O)O)n(C)c(=O)c3ccccc23)c1 (stereo not drawn) [Example 10, 2-(tert-butoxy)-2-[4-(3,5-dimethylphenyl)-2-methyl-1-oxo-1,2-dihydroisoquinolin-3-yl]acetic acid] | 4.98 |
